From US20050203011A1, “Mitigating symptoms and behaviors of substance abuse by modulating GDNF or BDNF pathway activity” (The Regents of the University of California, priority 2003, published 2005)

Assays:
rats = test: VTA microinjection of ibogaine, ethanol operant self-administration; format: in vivo, rat
Protocol: After ethanol self-administration was established as described above, subjects attained a mean daily intake of ethanol of 0.62±0.07 g/kg. Bilateral guide cannula (26 gauge, Plastics One) were implanted into the VTA (5.6 mm posterior to bregma, 1.0 mm mediolateral, 8.0 mm ventral to the skull surface). After 7 to 10 days recovery, sham injections were conducted prior to ethanol self-administration sessions to habituate subjects to the microinjection procedure. […] Injection cannulae were left in place for an additional 2 minutes to allow for diffusion of the drug. Three, 24 and 48 hours post injection, rats were placed into the self-administration chambers for a 1-hour self-administration session.

GDNF [1] = test: GDNF expression in the midbrain after i.p. ibogaine (RT-PCR), rats; format: in vivo, rat; settings: 40 mg/kg i.p., 1, 6 or 12 h post injection
Protocol: (§1) Total RNA was isolated using Trizol reagent and reverse transcribed using Reverse Transcription System kit with the oligo (dT)15 primer at 42ûC for 30 minutes. GDNF, Actin or GPDH expressions were analyzed by RT-PCR. The GDNF primers were based on the coding frame of the human GDNF gene: upstream, 5′-TGCCAGAGGATTATCCTGATCAGTTCG ATG3′ (SEQ ID NO: 1); and downstream, 5′-TTGTCGTACGTTGTCTCAGCTGCATCGCAA-3′ (SEQ ID NO:2). The Actin primers were based on the human Actin gene: upstream, 5′-TCATGAAGTGTGACGTTGACATC-3′ (SEQ ID NO:3); and downstream, 5′-AGAAGCATTTGCGGTGGACGATG-3′ (SEQ ID NO:4). The GPDH primers were based on the rat GPDH gene: upstream, 5′-TGAAGGTCGGTGTCAACGGATTTGGC-3′ (SEQ ID NO:5); and downstream, 5′-CATGTAGGCCATGAGGTCCACCAC-3′ (SEQ ID NO:6). PCR conditions were optimized to specifically ensure that the amplification reactions are within the linear range by testing a range of 25-40 PCR cycles. The optimal numbers of cycles used were: 30 cycles for controls GPDH and actin and 35 cycles for GDNF.
Male C57B16 mice or Long Evans rats were habituated with 3 saline injections over 3 days followed by i.p. administration of 40 mg/kg ibogaine-HCl. The animals were sacrificed 1, 6 or 12 hours post injection, and brain regions were excised and stored at −80° C. until use for analysis of GDNF expression by RT-PCR.

GDNF [2] = test: GDNF expression in SHSY5Y cells (RT-PCR); format: cell-based, human
Protocol: SHSY5Y human neuroblastoma cells were grown in Dulbecco's modified Eagle's medium (DMEM) containing 10% fetal bovine serum (FBS) plus 100 units/ml penicillin and 100 μg/ml streptomycin. Prior to experiments, the medium was replaced with DMEM containing 1% FBS.
as §1, with “PCR conditions were optimized to specifically ensure that the amplification reactions are within the linear range by testing a range of 25-40 PCR cycles. The optimal numbers of cycles used were: 30 cycles for controls GPDH and actin and 35 cycles for GDNF.” left out
After completion of PCR, 10 μl of each product was separated by 1.8% agarose gel in Tris/acetic acid/EDTA buffer with 0.25N^og/ml ethidium bromide, photographed by Eagle Eye II (Stratagene), and quantified by NIH Image 1.61.

[3] = tested on: Ret association with GFRα1; test: Ret association with GFRα1 in SHSY5Y cells (immunoprecipitation, Western blot); format: cell-based, human; settings: 3 hours
Protocol: (§2) Expression of GDNF and control Actin were analyzed by RT-PCR (n=4). […] GDNF in the media was detected by an ELISA assay. Histogram depicts the mean±SD of GDNF secretion in 3 experiments. […] Ret was immunoprecipitated with anti-Ret antibodies followed by Western blot analysis with anti GFRα1 antibodies. The levels of GFRα1 in the homogenates were determined by Western blot analysis (n=3). […] Ret was immunoprecipitated followed by Western blot analysis with anti-phospho tyrosine or anti-Ret antibodies (n=3). […] Trk phosphorylation was analyzed by Western blot analysis with anti-phospho-Trk antibodies. The levels of TrkB were also determined by Western blot analysis (n=3). Panel F: Cells were pre-incubated with 0.3 unit/ml PI-PLC for 1 h (lanes 3 and 4). […] Ret phosphorylation was determined as described above (n=4). […] Treatment with 50 ng/ml GDNF was used as a positive control (lane 5). The cells were lysed and Ret phosphorylation was analyzed as described above (n=3).
(§3) Cells were collected and lysed in RIPA buffer (50 mM Tris-Cl, pH 7.6, 150 mM NaCl, 1 % NP40, 0.1% SDS, 0.5% sodium deoxycholate, 2 mM EDTA, protease inhibitor cocktail and 10 mM sodium orthovanadate). Homogenates were incubated with 5 N^og anti-Ret antibody in TBS-T buffer (20 mM Tris-Cl, pH7.6, 137 mM NaCl and 1% NP-40) overnight at 4° C., followed by 2 hours incubation with Protein G agarose. […]

Ret = Ret phosphorylation in SHSY5Y cells; format: cell-based, human; settings: dose- and time-dependent
Protocol: as §2, §3

Trk = Trk phosphorylation in SHSY5Y cells; format: cell-based, human; settings: 10 μM ibogaine 3 hours
Protocol: as §2

ERK1/2 = ERK1/2 phosphorylation in SHSY5Y cells; format: cell-based, human; settings: 10 μM ibogaine
Protocol: ERK2 and pERK1/2 were detected by Western blot analysis with anti-ERK2 and pERK1/2 antibodies respectively. Line-graph depicts the mean ratio (pERK2/ERK2)±SD of 3 experiments. […] Panel C: Cells were pre-incubated with 0.3 unit/ml PI-PLC for 1 h (lane 3).

## 12-methoxyibogamine [ibogaine]
rats; intra-VTA 0.1 μM, any tested time point
  lever responding for ethanol: did not differ from responding following vehicle
rats; intra-VTA 10 μM
  lever presses for ethanol, return to baseline: did not return to baseline levels within 48 hours
rats; intra-VTA 10 μM, 3, 24 and 48 hours, vs vehicle
  lever responding for ethanol: significantly reduced responding at all time points
rats; intra-VTA 0.1, 1.0 and 10.0 μM/0.5 μl, 3 hours before session, dose-dependent
  ethanol-paired lever pressing: significantly decreased
GDNF [1]
  expression of GDNF in the midbrain: increase
GDNF [2]
  duration of increase in GDNF expression: up to 12 hours
GDNF [2]; 10 μM, dose- and time-dependent
  GDNF expression: increase
[3]
  GFRα1 protein levels: not due to increased GFRα1 protein levels
  Ret association with GFRα1: increased
Ret
  Ret phosphorylation: induced
Trk
  phosphorylation state of Trk: no change
ERK1/2
  duration of ERK1/2 activation: up to 6 hours
  phosphorylation of ERK1/2: induced
